Measured values reported in ChEMBL document CHEMBL2380298, “Synthesis and antimicrobial activity of novel amphiphilic aromatic amino alcohols” (2013).
Values after ≈ are worked out from the molar mass of the structure shown.

Tests used:
Format in all cases: functional
Pseudomonas aeruginosa = assay: Antimicrobial activity against Pseudomonas aeruginosa ATCC 27853 by broth dilution method
Nakaseomyces glabratus = assay: Antimicrobial activity against Candida glabrata ATCC 18804 by broth dilution method
Escherichia coli = assay: Antimicrobial activity against Escherichia coli ATCC 11229 by broth dilution method; details: for MIC: Escherichia coli, ATCC 11229
Staphylococcus aureus = assay: Antimicrobial activity against Staphylococcus aureus ATCC 29213 by broth dilution method; details: for MIC: Staphylococcus aureus, ATCC 29213
Candida tropicalis = assay: Antimicrobial activity against Candida tropicalis ATCC 750 by broth dilution method
Candida parapsilosis = assay: Antimicrobial activity against Candida parapsilosis ATCC 90030 by broth dilution method; details: Lodderomyces parapsilosis
[1] = tested on: Staphylococcus epidermidis; assay: Antimicrobial activity against Staphylococcus epidermidis ATCC 12228 by broth dilution method; details: for MIC: Staphylococcus epidermidis, ATCC 12228

Structure (SMILES)	MIC (Pseudomonas aeruginosa) [µg/mL]	MIC (Nakaseomyces glabratus) [µg/mL]	-logMIC (Escherichia coli)	MIC (Escherichia coli) [µg/mL]	-logMIC (Staphylococcus aureus)	MIC (Staphylococcus aureus) [µg/mL]	MIC (Candida tropicalis) [µg/mL]	MIC (Candida parapsilosis) [µg/mL]	-logMIC [1]	MIC [1] [µg/mL]
CCCCCCOc1ccc(CNC(CO)(CO)CO)cc1.Cl	512	256	3.13	256	3.45	128	> 512	> 512	3.43	128
CCCCOc1ccc(CNC(CO)(CO)CO)cc1.Cl	512	512	2.49	1020	2.49	1020	> 512	> 512	2.79	512
CCC(C)n1ncn(-c2ccc(N3CCN(c4ccc(OCC5COC(Cn6cncn6)(c6ccc(Cl)cc6Cl)O5)cc4)CC3)cc2)c1=O (stereo not drawn) [ITRACONAZOLE]	–	256 (≈ 363 µM)	–	–	–	–	> 512	> 512	–	–
